Key:
FGF target genes = assay: Whole mount in situ hybridization of FGF target genes in treated embryos; format: in vivo, zebrafish
Experimental: (§1) In situ hybridization experiments were carried out as described previously (Kudoh, T. et al. Genome Res 11, 1979-87 (2001)). The probes eng3, krox20, sef, dusp6, gata4, nkx2.5, cmlc2, vmhc, scl, etsrp and hand2 were generated with a RNA labeling kit (Roche) (Tsang, M. et al. Development 131, 2769-79 (2004); Chen, J. N. et al. Development 122, 3809-16 (1996); Ekker, M., et al. Development 116, 1001-10 (1992); Liao, E. C. et al. Genes Dev 12, 621-6 (1998); Oxtoby, E. et al. Nucleic Acids Res 21, 1087-95 (1993); Pham, V. N. et al. Dev Biol 303, 772-83 (2007); Tsang, M., et al. Nat Cell Biol 4, 165-9 (2002); Yelon, D., et al. Dev Biol 214, 23-37 (1999); and Yelon, D. et al. Development 127, 2573-82 (2000)). The double fluorescent in situ hybridization protocol was described by Schoenbeck et al. (Dev Cell 13, 254-67 (2007)). Fluorescent in situ hybridizations were visualized by confocal microscopy. Single optical sections and z-series of flat-mounted stained embryos were collected with a confocal laser scan head (SP5, Leica Microsystems, Inc.) mounted on an inverted compound microscope (DM16000, Leica Microsystems, Inc.). Images were scanned and compiled with NIH ImageJ software (rsb.info.nih.gov/ij/).
We previously described the generation of a transgenic zebrafish line, (Tg(Dusp6:d2EGFP)pt6) that expresses destabilized green fluorescent protein (d2EGFP) under the control of FGF signaling (Molina, G. A., et al. BMC Dev Biol 7, 62 (2007)). […] Five transgenic embryos at 24 hours post fertilization (hpf) were arrayed into each well of a 96-well plate containing test compounds at 10 μM. d2EGFP intensity in treated embryos was visually analyzed and compared to vehicle control (0.5% DMSO) after 6-8 hours. […] To confirm that BCI hyperactivated FGF signaling, we treated embryos prior to gastrulation (5 hpf), and we analyzed by whole mount in situ hybridization, the expression of ntl (zebrafish brachyury), a known FGF target gene (Latinkic, B. V. et al. Genes Dev 11, 3265-76 (1997)). […] We next determined the BCI structural features required to enhance FGF signaling. […]

Dusp3/VHR = Dusp3/VHR (Homo sapiens, UniProt P51452); assay: OMFP phosphatase assay, Dusp3/VHR; format: biochemical; conditions: n=3, OMFP substrate, 15.2 nM-300 μM; read-out: mean in vitro values, VHR
Experimental: Enzyme activities in the presence or absence of BCI were measured using the artificial substrate […] at concentrations equal to the Km of each enzyme (Cdc25B, PTP1B & Dusp3/VHR) and at optimal pH for individual enzyme activity in a 96-well microtiter plate assay based on previously described methods by Lazo et al. (J Med Chem 44, 4042-9 (2001) and Lazo, J. S. et al. Bioorg Med Chem 14, 5643-50 (2006)). Briefly, the standard assay conditions contained 0.02 mg/ml OMFP in assay buffer (30 mM Tris-HCl (pH8.0), 75 mM NaCl, 1 mM EDTA, 0.33% BSA and 1 mM DTT). Fluorescence emission was measured after a sixty-minute incubation period at ambient temperature using a multiwell plate reader (SpectraMax m5, […]; excitation 485 nm, emission 525 nm). Sodium orthovanadate (100 μM) was used as a positive control for full phosphatase inhibition. IC50 concentrations were determined from three experiments using 10 concentrations of BCI ranging from 300 μM to 15.2 nM and GraphPad Prism 5.0 software.

[1] = test system: XFD (dominant negative FGF receptor); assay: Zebrafish mRNA microinjection, rescue of sef expression, XFD; format: in vivo; conditions: 5 μM BCI, shield stage
Experimental: (§2) dusp6 and XFD mRNA for microinjection studies were generated as previously described (Tsang, M. et al. Development 131, 2769-79 (2004)). Both Dusp5 and Spry4 ORFs were amplified by RT-PCR from 24 hpf zebrafish with the following primers: […]
(§3) Amplified PCR products were subcloned into pCS2+, sequenced verified and mRNAs were synthesized as described previously. Embryos were injected with 500 pg mRNA at the 1-2 cell stage, treated with 5 μM BCI at the 1000-cell stage and fixed at shield stage for in situ hybridization.
as §1, with “Fluorescent in situ hybridizations were visualized by confocal microscopy. Single optical sections and z-series of flat-mounted stained embryos were collected with a confocal laser scan head (SP5, Leica Microsystems, Inc.) mounted on an inverted compound microscope (DM16000, Leica Microsystems, Inc.). Images were scanned and compiled with NIH ImageJ software (rsb.info.nih.gov/ij/).” left out

Spry4 = assay: Zebrafish mRNA microinjection, rescue of sef expression, spry4; format: in vivo; conditions: 5 μM BCI, shield stage
Experimental: as §2, §3
as §1, with “Fluorescent in situ hybridizations were visualized by confocal microscopy. Single optical sections and z-series of flat-mounted stained embryos were collected with a confocal laser scan head (SP5, Leica Microsystems, Inc.) mounted on an inverted compound microscope (DM16000, Leica Microsystems, Inc.). Images were scanned and compiled with NIH ImageJ software (rsb.info.nih.gov/ij/).” left out

[2] = test system: FGF signaling (Tg(Dusp6:dsEGFP) reporter); assay: Dose response of GFP expression in Tg(Dusp6:dsEGFP) embryos, automated imaging; format: in vivo, zebrafish; conditions: Danio rerio; treated at 24 hpf, 6 hours; read-out: EC50, GFP expression in transgenic embryos
Experimental: We tested a series of structurally related analogs of BCI in an in vivo assay. As described in Molina et al. (Nature Chemical Biology, 2009), Tg(Dusp6:dsEGFP) embryos were treated at 24 hours post fertilization with increasing doses of compounds. After 6 hours treatment, embryos were imaged by the IXU ImageXpress (Molecular Devices), and images were processed by Definiens Software. The software identified bright head structures and measured fluorescence.
Under similar conditions, BCI-related analogs were tested and EC50 values measured.

Dusp3/VHR, sequence (P51452 whole entry): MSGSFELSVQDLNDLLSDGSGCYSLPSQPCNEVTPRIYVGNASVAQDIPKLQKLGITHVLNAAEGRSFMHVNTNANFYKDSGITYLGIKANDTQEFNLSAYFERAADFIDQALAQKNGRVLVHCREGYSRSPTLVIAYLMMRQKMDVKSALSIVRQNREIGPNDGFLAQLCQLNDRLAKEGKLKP

O=C1/C(=C/c2ccccc2)C(NC2CCCCC2)c2ccccc21 (stereo not shown) [Compound 3, (E)-2-benzylidene-3-(cyclohexylamino)-2,3-dihydro-1H-inden-1-one]
expression of ntl (FGF target genes; treated prior to gastrulation (5 hpf), 6-somite stage): greatly expanded
expression of engrailed3 (eng3) and krox20 (FGF target genes; treatment during somitogenesis): increased expression
expression of dusp6 (FGF target genes; treatment from the 1- to 10-somite stage): marked increase
IC50 (Dusp3/VHR): > 300 µM
reversal of effects of XFD mRNA on sef expression [1]: did not reverse
reversal of effects of spry4 mRNA on sef expression (Spry4): did not reverse
EC50 [2]: 11.4 µM

From US9127016B2, “Small molecule inhibitors of Dusp6 and uses therefor” (University of Pittsburgh—Of the Commonwealth System of …, priority 2009, dated 2015)
